Laboratory results: paper PMC12816392, “Salmonella relies on siderophore exploitation at low pH” (microLife, 2026)

Molecular target: FoxA (Salmonella enterica, UniProt E1W8M5)
Test: […]-DFOE radioligand binding to whole Salmonella cells expressing FoxA, at […]-4 °C with CCCP, filtration and scintillation counting; pH […] and […]
Format: cell-based

FoxA, sequence (E1W8M5 31-702): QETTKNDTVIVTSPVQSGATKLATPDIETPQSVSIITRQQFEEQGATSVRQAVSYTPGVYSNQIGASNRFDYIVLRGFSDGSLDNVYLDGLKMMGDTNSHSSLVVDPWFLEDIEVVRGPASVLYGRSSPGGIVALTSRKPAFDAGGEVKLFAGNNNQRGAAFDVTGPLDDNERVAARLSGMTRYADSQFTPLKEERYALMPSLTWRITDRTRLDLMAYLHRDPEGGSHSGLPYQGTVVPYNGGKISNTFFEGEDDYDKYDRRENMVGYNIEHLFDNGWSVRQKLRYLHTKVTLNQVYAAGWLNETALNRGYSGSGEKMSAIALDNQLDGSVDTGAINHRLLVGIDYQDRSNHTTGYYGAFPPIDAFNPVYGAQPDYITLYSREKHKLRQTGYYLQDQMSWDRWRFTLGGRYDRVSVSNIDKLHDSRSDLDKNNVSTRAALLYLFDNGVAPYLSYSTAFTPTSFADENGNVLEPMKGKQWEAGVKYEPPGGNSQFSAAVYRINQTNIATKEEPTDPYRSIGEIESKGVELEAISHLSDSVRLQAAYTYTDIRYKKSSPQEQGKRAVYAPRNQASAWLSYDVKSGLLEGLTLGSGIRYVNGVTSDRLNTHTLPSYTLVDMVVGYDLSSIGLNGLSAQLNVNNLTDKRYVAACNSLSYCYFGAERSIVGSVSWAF

O=C1CCC(=O)N(O)CCCCCNC(=O)CCC(=O)N(O)CCCCCNC(=O)CCC(=O)N(O)CCCCCN1 [DFOE, ferrioxamine E]
Kd: ~3.2 nM
